From patent US12565687B2, “Glucose in solid form and process for manufacturing glucose in solid form” (CARGILL, INCORPORATED, priority 2021, dated 2026)

Assay: Dissolution speed test in distilled water
Type: physicochemical
Conditions: 1.5 g solid, particle sizes 425-600 μm, stirred in distilled water at ambient temperature
Description: Dissolution speed tests of the produced semi-crystalline particles were performed by comparison with the dissolution speed of pure crystalline glucose i.e. glucose monohydrate. Two comparative runs were carried out by using an initial mass of 1.5 g of solid inventive semi-crystalline glucose particles vs. crystalline glucose monohydrate, both having particle sizes in the range of 425-600 μm. The solid was stirred in a cylindrical vessel with distilled water at ambient temperature. In both the runs the solid disappearance was detected after 25 s, showing an equal dissolution speed of the produced semi-crystalline glucose in comparison to the crystalline glucose monohydrate.

O.O=C[C@H](O)[C@@H](O)[C@H](O)[C@H](O)CO [crystalline glucose monohydrate, glucose monohydrate]
time until solid disappearance was detected (dissolution speed): 25 s
